Measured values as given in patent publication US20060183901A1, “Crystalline form of an indazole-carboxamide compound” (THERAVANCE, INC., priority 2005, published 2006).

Legend:
[1] = tested on: Caco-2 cell monolayer; test: Caco-2 permeation assay; assay type: in vitro ADME, human; conditions: 100 μM, 37° C., 60 min
Description: Assay 5: In Vitro Model of Oral Bioavailability: Caco-2 Permeation Assay
The Caco-2 permeation assay was performed to model the ability of test compounds to pass through the intestine and get into the blood stream after oral administration. The rate at which test compounds in solution permeate a cell monolayer designed to mimic the tight junction of human small intestinal monolayers was determined.
Caco-2 (colon, adenocarcinoma; human) cells were obtained from ATCC (American Type Culture Collection; Rockville, Md.). For the permeation study, cells were seeded at a density of 63,000 cells/cm^2 on pre-wetted transwells polycarbonate filters (Costar; Cambridge, Mass.). A cell monolayer was formed after 21 days in culture. Following cell culture in the transwell plate, the membrane containing the cell monolayer was detached from the transwell plate and inserted into the diffusion chamber (Costar; Cambridge, Mass.). The diffusion chamber was inserted into the heating block which was equipped with circulating external, thermostatically regulated 37° C. water for temperature control. […]
The permeation study was performed with test compound concentrations at 100 μM and with ^14C-mannitol to monitor the integrity of the monolayer. […] Samples were analyzed by HPLC or liquid scintillation counting for test compound and mannitol concentrations. The permeation coefficient (Kp) in cm/sec was calculated.

[2] = biological target: human 5-HT3A receptor (Homo sapiens, UniProt P46098)
Description: Assay 2: Radioligand Binding Assay on 5-HT3A Human Receptors: Determination of Receptor Subtype Selectivity
Membrane Preparation 5-HT3A
Cells were grown in T-225 flasks or cell factories in 50% Dulbecco's Modified Eagles Medium (DMEM) (GIBCO-Invitrogen Corp., Carlsbad, Calif.: Cat #11965) and 50% Ham's F12 (GIBCO-Invitrogen Corp.: Cat #11765) supplemented with 10% heat inactivated fetal bovine serum (FBS) (Hyclone, Logan, Utah: Cat #SH30070.03) and (50 units) penicillin-(50 μg) streptomycin/ml (GIBCO-Invitrogen Corp.: Cat #15140) in a 5% CO2, humidified incubator at 37° C.
Cells were grown to roughly 70-80% confluency (<35 subculture passages). All steps of the membrane preparation were performed on ice. […]
Radioligand binding assays were performed in 96-well polypropylene assay plates in a total assay volume of 200 μL containing 1.5-2 μg membrane protein in 50 mM HEPES pH 7.4, containing 0.025% BSA assay buffer. […] Non-specific binding was determined in the presence of 10 μM unlabeled MDL72222. […] Filter plates were washed three times with filtration buffer (ice-cold 50 mM HEPES, pH7.4) to remove unbound radioactivity. Plates were dried, 35 μL Microscint-20 liquid scintillation fluid (Packard BioScience Co., Meriden, Conn.) was added to each well and plates were counted in a Packard Topcount liquid scintillation counter (Packard BioScience Co., Meriden, Conn.). […]

[3] = biological target: T1, hERG cardiac potassium channel (Homo sapiens, UniProt Q12809); test: In vitro voltage clamp assay of inhibition of potassium ion current in whole cells expressing hERG; assay type: cell-based; conditions: pH 7.4, 5 minutes exposure, CHO-K1 cells
T1 construct: host or cells: CHO-K1
Description: Assay 4: In Vitro Voltage Clamp Assay of Inhibition of Potassium Ion Current in Whole Cells Expressing the hERG Cardiac Potassium Channel
CHO-K1 cells stably transfected with hERG cDNA were obtained from Gail Robertson at the University of Wisconsin. Cells were held in cryogenic storage until needed. Cells were expanded and passaged in Dulbecco's Modified Eagles Medium/F 12 supplemented with 10% fetal bovine serum and 200 μg/mL geneticin. Cells were seeded onto poly-D-lysine (100 μg/mL) coated glass coverslips, in 35 mm^2 dishes (containing 2 mL medium) at a density that enabled isolated cells to be selected for whole cell voltage-clamp studies. The dishes were maintained in a humidified, 5% CO2 environment at 37° C.
Extracellular solution was prepared at least every 7 days and stored at 4° C. when not in use. […]
The coverslips on which the cells were seeded were transferred to a recording chamber and perfused continuously. […] Peak current amplitudes during the repolarization phase were determined using pClamp software. […]
Peak current amplitudes during the repolarization phase were determined using pCLAMP software. […] The normalized current means and standard errors for each condition were calculated and plotted versus the time course of the experiment. […]

human 5-HT3A receptor, sequence (P46098 24-478): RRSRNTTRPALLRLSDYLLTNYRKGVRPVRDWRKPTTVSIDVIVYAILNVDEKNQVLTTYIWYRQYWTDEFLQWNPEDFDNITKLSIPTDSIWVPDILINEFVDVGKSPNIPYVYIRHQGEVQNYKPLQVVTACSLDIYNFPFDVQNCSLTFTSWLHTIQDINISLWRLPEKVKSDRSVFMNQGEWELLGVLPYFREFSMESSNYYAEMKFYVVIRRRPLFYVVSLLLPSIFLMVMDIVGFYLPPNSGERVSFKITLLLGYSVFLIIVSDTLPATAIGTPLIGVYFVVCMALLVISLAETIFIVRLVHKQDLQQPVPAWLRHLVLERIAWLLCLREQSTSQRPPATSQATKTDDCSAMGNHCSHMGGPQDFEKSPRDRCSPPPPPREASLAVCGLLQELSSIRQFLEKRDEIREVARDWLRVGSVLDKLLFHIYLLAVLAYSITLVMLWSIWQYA
T1 sequence (Q12809 whole entry): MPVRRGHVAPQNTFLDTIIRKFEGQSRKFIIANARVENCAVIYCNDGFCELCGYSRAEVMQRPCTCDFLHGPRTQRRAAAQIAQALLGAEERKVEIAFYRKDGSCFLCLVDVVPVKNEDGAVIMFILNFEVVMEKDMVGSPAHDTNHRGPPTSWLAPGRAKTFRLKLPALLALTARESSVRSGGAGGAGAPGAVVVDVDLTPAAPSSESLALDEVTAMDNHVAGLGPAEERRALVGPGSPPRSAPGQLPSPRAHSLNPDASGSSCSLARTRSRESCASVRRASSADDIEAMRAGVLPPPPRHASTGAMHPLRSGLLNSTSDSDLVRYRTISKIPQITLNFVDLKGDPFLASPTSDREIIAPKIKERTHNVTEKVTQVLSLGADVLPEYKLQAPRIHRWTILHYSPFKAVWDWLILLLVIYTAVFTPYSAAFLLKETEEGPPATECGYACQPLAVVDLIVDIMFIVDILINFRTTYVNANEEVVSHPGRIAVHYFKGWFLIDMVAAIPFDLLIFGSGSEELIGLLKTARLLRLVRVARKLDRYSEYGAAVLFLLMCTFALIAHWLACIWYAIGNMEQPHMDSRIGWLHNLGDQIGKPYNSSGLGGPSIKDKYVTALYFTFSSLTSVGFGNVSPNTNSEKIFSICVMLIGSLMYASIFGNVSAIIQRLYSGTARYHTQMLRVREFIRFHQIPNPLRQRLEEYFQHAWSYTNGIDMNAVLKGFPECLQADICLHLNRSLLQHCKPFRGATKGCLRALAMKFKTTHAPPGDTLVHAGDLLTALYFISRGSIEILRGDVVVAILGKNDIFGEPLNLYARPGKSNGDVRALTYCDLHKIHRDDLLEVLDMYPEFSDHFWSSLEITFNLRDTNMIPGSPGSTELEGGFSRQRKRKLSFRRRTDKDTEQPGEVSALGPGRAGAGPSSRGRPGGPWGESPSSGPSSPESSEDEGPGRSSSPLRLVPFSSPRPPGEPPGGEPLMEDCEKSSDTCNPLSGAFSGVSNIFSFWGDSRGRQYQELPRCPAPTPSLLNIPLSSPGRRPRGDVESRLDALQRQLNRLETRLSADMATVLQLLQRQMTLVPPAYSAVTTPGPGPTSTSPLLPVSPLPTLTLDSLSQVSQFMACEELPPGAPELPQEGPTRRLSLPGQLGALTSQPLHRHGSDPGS

SMILES: CC(=O)N1CCN(CCN2C3CCC2CC(NC(=O)c2nn(C(C)C)c4ccccc24)C3)CC1 [compound of formula I, 1-isopropyl-1H-indazole-3-carboxylic acid {(1S,3R,5R)-8-[2-(4-acetylpiperazin-1-yl)ethyl]-8-azabicyclo[3.2.1]oct-3-yl}amide]
- permeation coefficient Kp [1]: greater than 20×10^−6 cm/sec
- 5-HT4/5-HT3 receptor subtype selectivity, ratio Ki(5-HT3A)/Ki(5-HT4(c)) [2]: greater than 500
- inhibition at 5 min, 3 µM [3]: < 15%
